Measurements as given in patent US20220257503A1, “Surface Modified Gas Vesicles, Preparation and Applications thereof” (THE HONG KONG POLYTECHNIC UNIVERSITY, priority 2019, published 2022).

Key:
[1] = system: SCC7 tumor-bearing nude mice; assay: Biodistribution by NIR fluorescence imaging in tumor-bearing mice; format: in vivo
Method: Animal experiments were conducted under protocols approved by Animal Care and Use Committee (CC/ACUCC) of Hong Kong Polytechnic University. Suspension of 4×10^6 SCC7 cells in PBS (80 μL) was injected to subcutaneous sites in athymic nude mice (seven weeks old, female, 20-24 g). When the tumor size (in the right leg region) reached average size of 120 mm^3, mice were randomly allocated into three groups, (a) injecting free ICG solution into the tail veins of mice; (b) injecting ICG labelled GVs solution into the tail veins of mice; and (c) injecting ICG labelled PH-GVs solution into the tail veins of mice. Fluorescent imagines were acquired at 0, 0.5, 1, 2, 4, 8, 12, 24 and 48 h after injection using IVIS Lumina II (Caliper Life Sciences, USA; Excitation Filter: 780 nm, Emission Filter: 800 nm).
At the time of highest accumulation after one-dose injection, SCC7 tumors and normal organs (hearts, livers, spleens, kidneys, lungs and muscles) were collected for acquisition of Fluorescent signal intensity.

[2] = Singlet oxygen generation in cell free system under ultrasound (SOSG); conditions: alone; PpIX 10 μM, GVs 2 nM
Method: SDT setup: 1 MHz planar ultrasound transducer with diameter of 5 cm (Olympus, Tokyo, Japan) was used for sonification in this study. Function generator (AFG 3251, Tektronix Company, Oregon, USA) and power amplifier (Model 500 A250 CAR; Souderton, Pa., USA) were used to generate ultrasonic pulses. Cells were exposed to ultrasound 10 cm away from transducer coupled by degassed deionized water at 25° C. Acoustic intensity and field were characterized by hydrophone (HGL-200; Onda, Sunnyvale, Calif., USA). The spatial peak temporal average intensity was measured to be 8 W/cm^2; the duty cycle was 20% with fixed pulse repetition frequency (PRF) of 1000 Hz. The overall sonification duration was 5 min. The temperature increase in cell-culture experiment solution was controlled within 2.5° C. After the ultrasound treatment, cells were cultured in fresh medium for 4 h and then prepared for different analyses.
Generation of singlet oxygen: SOSG (10 μM) was used to detect singlet oxygen generation. The solution was exposed to ultrasound and protected from light during the exposure time. The fluorescence intensity of SOSG was measured by microplate reader at an excitation wavelength of 488 nm and an emission wavelength of 530 nm.

MCF-7 cells [3] = assay: Cell apoptosis after PDT by Annexin V/PI flow cytometry; format: cell-based, Human; conditions: PDT (PpIX plus laser)
Method: (§1) Photodynamic therapy setup: Cells were exposed to laser with the power of 100 mW/cm^2 for 5 min. The light source with a wavelength of 396 nm that was generated by an optical fiber was collimated to an aperture and irradiated to the 35 mm cell culture dish. The position of the cell culture plate was manually controlled by a dual-axis electric linear platform. After the treatment, cells were cultured in fresh medium for 4 h and then prepared for different analyses.
Cell apoptosis test: Cells were seeded at a density of 5×10^5 cells in 6-cm dishes and incubated for 24 h. Alexa Fluor 488 Annexin V/Dead Cell Apoptosis Kit (Thermo Fisher Scientific) was used to measure cell apoptosis according to the manufacturer's instructions. Cells were collected and incubated with 5 μL of the annexin V conjugate and 1 μL of the PI working solution at room temperature for 15 min. The cells were analyzed by FACS Calibur flow cytometer and BD Accuri C6 Software (Becton-Dickinson, USA).

MCF-7 cells [4] = assay: PDT cytotoxicity by CCK-8 assay; format: cell-based, Human
Method: as §1
Cell culture: Human breast cancer cell line (MCF-7) was obtained from the Shanghai Cell Bank. […]
Cell viability test: In the pilot study, MCF-7 cells were divided randomly into eight groups: (1) control, (2) laser alone, (3) PpIX alone, (4) PpIX plus laser (PDT), (5) PpIX+GVs+laser (PDT+GVs), (6) PpIX+oxyGVs+laser (PDT+oxy-GVs), (7) GVs+laser, and (8) oxyGVs+laser. […] Cell viability at the different time points following PDT was determined using a Cell Counting Kit-8 (Sigma-Aldrich) according to the manufacturer's instructions. […] Cytotoxicity was determined by adding 10 μl CCK-8 reagent per well for 1 h at 37° C. in 5% CO2. The absorbance of the treated samples against a blank control was measured at 450 nm as the detection wavelength. The viability of treated cells was determined by comparing to the untreated ones in the control group.

Row | Compound | fluorescence at tumor sites (in vivo imaging) ([1]; after intravenous injection, PH-GVs at 8 h) | fluorescence signals in the normal organs (in vivo imaging) ([1]; early time points (0.5-2 h) for ICG/GVs, up to 8 h for PH-GVs) | SOSG fluorescence intensity before and after ultrasound treatment [2] | viable cells (MCF-7 cells [3]) [%] | effects on cell viability (MCF-7 cells [4]; PpIX alone, no laser) | cell viability (MCF-7 cells [4]; PpIX+laser (ALA-PDT), 4 h following PDT) [%]
1 | CC1(C)C(/C=C/C=C/C=C/C=C2\N(CCCCS(=O)(=O)[O-])c3ccc4ccccc4c3C2(C)C)=[N+](CCCCS(=O)(=O)[O-])c2ccc3ccccc3c21.[Na+] [ICG] | no strong fluorescence signal | considerable fluorescence signals | – | – | – | –
2 | C=CC1=C(C)c2cc3[nH]c(cc4[nH]c(cc5nc(cc1n2)C(C)=C5C=C)c(C)c4CCC(=O)O)c(CCC(=O)O)c3C [PpIX] | – | – | increased significantly | 74.7 | no effects | 75
